Reference: US20150344540A1, “NOVEL GLP-1 RECEPTOR AGONISTS WITH CHOLESTEROL EFFLUX ACTIVITY” (NOVO NORDISK A/S, priority 2012, published 2015)
Where a SMILES comes first, the peptide text is derived from it. [ ]: non-standard residue; d: D form. Aib = CC(C)(N)C(=O)O

System: Mouse monocyte/macrophage cell line, RAW 264.7
Assay: Cholesterol efflux assay (3H-cholesterol, macrophage cell line)
Type: cell-based
Conditions: RAW 264.7, 4 hrs incubation, 0.1% human serum albumin; for 4 h Cholesterol Efflux Emax: ABCA1-mediated efflux

Compound	4 h Cholesterol Efflux Emax	EC50 (read-out: 4 h Cholesterol Efflux EC50, ABCA1-mediated efflux (CPT-cAMP induced minus non-induced))
CC[C@H](C)[C@H](NC(=O)[C@H](Cc1ccccc1)NC(=O)[C@H](CCC(=O)O)NC(=O)[C@H](CCCCN)NC(=O)[C@@H](NC(=O)[C@H](C)NC(=O)[C@H](Cc1c[nH]c2ccccc12)NC(=O)CNC(=O)[C@H](CCC(=O)O)NC(=O)[C@H](CC(C)C)NC(=O)[C@H](Cc1ccc(O)cc1)NC(=O)[C@H](CO)NC(=O)[C@H](CO)NC(=O)[C@@H](NC(=O)[C@H](CC(=O)O)NC(=O)[C@H](CO)NC(=O)[C@@H](NC(=O)[C@H](Cc1ccccc1)NC(=O)[C@@H](NC(=O)CNC(=O)[C@H](CCC(=O)O)NC(=O)C(C)(C)NC(=O)[C@@H](N)Cc1c[nH]cn1)[C@@H](C)O)[C@@H](C)O)C(C)C)C(C)C)C(=O)N[C@@H](C)C(=O)N[C@@H](Cc1c[nH]c2ccccc12)C(=O)N[C@@H](CC(C)C)C(=O)N[C@H](C(=O)N[C@@H](CCC(=O)O)C(=O)N[C@@H](CCCCN)C(=O)NC(C)(C)C(=O)N[C@@H](CCCCN)C(=O)N[C@@H](CCC(=O)O)C(=O)N[C@@H](Cc1ccccc1)C(=O)N[C@@H](CC(C)C)C(N)=O)C(C)C [Compound 21, [Aib8,Trp23,Val25,Glu34,Lys35,Aib36,Lys37]-GLP-1-(7-37)-peptidyl-Glu-Phe-Leu amide] (H-H[Aib]EGTFTSDVSSYLEGWAVKEFIAWLVEK[Aib]KEFL-NH2)	70%	–
CC[C@H](C)[C@H](NC(=O)[C@H](Cc1ccccc1)NC(=O)[C@H](CCC(=O)O)NC(=O)[C@H](CCCNC(=N)N)NC(=O)[C@@H](NC(=O)[C@H](C)NC(=O)[C@H](CCC(=O)O)NC(=O)[C@H](CCC(=O)O)NC(=O)[C@H](CCC(=O)O)NC(=O)[C@H](CCSC)NC(=O)[C@H](CCC(N)=O)NC(=O)[C@H](CCCCN)NC(=O)[C@H](CO)NC(=O)[C@H](CC(C)C)NC(=O)[C@H](CC(=O)O)NC(=O)[C@H](CO)NC(=O)[C@@H](NC(=O)[C@H](Cc1ccccc1)NC(=O)[C@@H](NC(=O)CNC(=O)[C@H](CCC(=O)O)NC(=O)C(C)(C)NC(=O)[C@@H](N)Cc1c[nH]cn1)[C@@H](C)O)[C@@H](C)O)C(C)C)C(=O)N[C@@H](CCC(=O)O)C(=O)N[C@@H](Cc1c[nH]c2ccccc12)C(=O)N[C@@H](CC(C)C)C(=O)N[C@@H](CCCCN)C(=O)N[C@@H](CC(N)=O)C(=O)N[C@@H](CCCCN)C(=O)NC(C)(C)C(=O)N[C@@H](CC(C)C)C(=O)N[C@@H](CO)C(=O)N[C@@H](Cc1ccccc1)C(=O)N[C@@H](CC(C)C)C(=O)N[C@@H](CCC(=O)O)C(=O)N[C@@H](CC(C)C)C(=O)N[C@@H](CC(C)C)C(N)=O [Compound 36, [Aib2,Glu21,Lys29,Aib30,Leu31,Phe33,Leu34,Glu35,Leu36,Leu371-Exendin-4-(1-37)-peptide amide] (H-H[Aib]EGTFTSDLSKQMEEEAVREFIEWLKNK[Aib]LSFLELL-NH2; N-terminus assumed)	95%	–
Ac-DWFKAFYDKVAEKFKEAF-NH2 (N-terminus and C-terminus assumed) [Compound L-4F, reference compound]	108%	–
CC[C@H](C)[C@H](NC(=O)[C@H](Cc1ccccc1)NC(=O)[C@H](CCC(=O)O)NC(=O)[C@H](CCCCN)NC(=O)[C@@H](NC(=O)[C@H](C)NC(=O)[C@H](CCC(=O)O)NC(=O)CNC(=O)[C@H](CCC(=O)O)NC(=O)[C@H](CC(C)C)NC(=O)[C@H](Cc1ccc(O)cc1)NC(=O)[C@H](CO)NC(=O)[C@H](CO)NC(=O)[C@@H](NC(=O)[C@H](CC(=O)O)NC(=O)[C@H](CO)NC(=O)[C@@H](NC(=O)[C@H](Cc1ccccc1)NC(=O)[C@@H](NC(=O)CNC(=O)[C@H](CCC(=O)O)NC(=O)C(C)(C)NC(=O)[C@@H](N)Cc1c[nH]cn1)[C@@H](C)O)[C@@H](C)O)C(C)C)C(C)C)C(=O)N[C@@H](C)C(=O)N[C@@H](Cc1c[nH]c2ccccc12)C(=O)N[C@@H](CC(C)C)C(=O)N[C@H](C(=O)N[C@@H](CCC(=O)O)C(=O)N[C@@H](CCCCN)C(=O)NC(C)(C)C(=O)N[C@@H](CCCCN)C(=O)N[C@@H](CCC(=O)O)C(=O)N[C@@H](Cc1ccccc1)C(=O)N[C@@H](CC(C)C)C(=O)N[C@@H](CCC(=O)O)C(=O)N[C@@H](CCCCN)C(=O)N[C@H](C(=O)N[C@@H](CCCCN)C(=O)N[C@@H](CCC(=O)O)C(=O)N[C@@H](Cc1ccccc1)C(=O)O)C(C)C)C(C)C [Compound 97]	125%	410 nM
CC[C@H](C)[C@H](NC(=O)[C@H](Cc1ccccc1)NC(=O)[C@H](CCC(=O)O)NC(=O)[C@H](CCCCN)NC(=O)[C@@H](NC(=O)[C@H](C)NC(=O)[C@H](CCCCN)NC(=O)CNC(=O)[C@H](CCC(=O)O)NC(=O)[C@H](CC(C)C)NC(=O)[C@H](Cc1ccc(O)cc1)NC(=O)[C@H](CO)NC(=O)[C@H](CO)NC(=O)[C@@H](NC(=O)[C@H](CC(=O)O)NC(=O)[C@H](CO)NC(=O)[C@@H](NC(=O)[C@H](Cc1ccccc1)NC(=O)[C@@H](NC(=O)CNC(=O)[C@H](CCC(=O)O)NC(=O)C(C)(C)NC(=O)[C@@H](N)Cc1c[nH]cn1)[C@@H](C)O)[C@@H](C)O)C(C)C)C(C)C)C(=O)N[C@@H](C)C(=O)N[C@@H](Cc1c[nH]c2ccccc12)C(=O)N[C@@H](CC(C)C)C(=O)N[C@H](C(=O)N[C@@H](CCC(=O)O)C(=O)N[C@@H](CCCCN)C(=O)NC(C)(C)C(=O)N[C@@H](CCCCN)C(=O)N[C@@H](CCC(=O)O)C(=O)N[C@@H](Cc1ccccc1)C(=O)N[C@@H](CC(C)C)C(N)=O)C(C)C [Compound 90, [Aib8,Lys23,Val25,Glu34,Lys35,Aib36,Lys37]-GLP-1-(7-37)-peptidyl-Glu-Phe-Leu amide] (H-H[Aib]EGTFTSDVSSYLEGKAVKEFIAWLVEK[Aib]KEFL-NH2; N-terminus assumed)	110%	–
CC[C@H](C)[C@H](NC(=O)[C@H](Cc1ccccc1)NC(=O)[C@H](CCC(N)=O)NC(=O)[C@H](CCCCN)NC(=O)[C@@H](NC(=O)[C@H](C)NC(=O)[C@H](CCC(N)=O)NC(=O)CNC(=O)[C@H](CCC(=O)O)NC(=O)[C@H](CC(C)C)NC(=O)[C@H](Cc1ccc(O)cc1)NC(=O)[C@H](CO)NC(=O)[C@H](CO)NC(=O)[C@@H](NC(=O)[C@H](CC(=O)O)NC(=O)[C@H](CO)NC(=O)[C@@H](NC(=O)[C@H](Cc1ccccc1)NC(=O)[C@@H](NC(=O)CNC(=O)[C@H](CCC(=O)O)NC(=O)C(C)(C)NC(=O)[C@@H](N)Cc1c[nH]cn1)[C@@H](C)O)[C@@H](C)O)C(C)C)C(C)C)C(=O)N[C@@H](C)C(=O)N[C@@H](Cc1c[nH]c2ccccc12)C(=O)N[C@@H](CC(C)C)C(=O)N[C@H](C(=O)N[C@@H](CCC(N)=O)C(=O)N[C@@H](CCCCN)C(=O)NC(C)(C)C(=O)N[C@@H](CCCCN)C(=O)N[C@@H](CCC(N)=O)C(=O)N[C@@H](Cc1ccccc1)C(=O)N[C@@H](CC(C)C)C(N)=O)C(C)C [Compound 102, [Aib8,Val25,Gln27,Gln34,Lys35,Aib36,Lys37]-GLP-1-(7-37)-peptidyl-Gln-Phe-Leu amide] (H-H[Aib]EGTFTSDVSSYLEGQAVKQFIAWLVQK[Aib]KQFL-NH2)	100%	–
